From US20260224584A1 (priority 2023, published 2026) come the findings set out here.

Counter-ions that a name gives are not always drawn.

The test deals with Human WB (90%) CD69. Kind of test: Human WB (90%) CD69. It is filed as cell-based. To be noted: read-out: Human WB (90%) CD69 IC50 (nM); human whole blood (90%), CD69 readout.
Take `CC(C)N1CCN(c2ccc(-c3cc(N4CCN(C(C)C)CC4)c4nc(-c5ccc(S(C)(=O)=O)cc5)n(C)c4c3)cc2)CC1` [Example 1, 4-(4-isopropylpiperazin-1-yl)-6-(4-(4-isopropylpiperazin-1-yl)phenyl)-1-methyl-2-(4-(methylsulfonyl)phenyl)-1H-benzo[d]imidazole]: the IC50 was 77 nM.

On to `CC(C)N1CCN(c2ccc(-c3cc(N(C)CCN(C)C)c4nc(-c5ccc(S(C)(=O)=O)cc5)n(C)c4c3)cc2)CC1` [Example 2, N1-(6-(4-(4-isopropylpiperazin-1-yl)phenyl)-1-methyl-2-(4-(methylsulfonyl)phenyl)-1H-benzo[d]imidazol-4-yl)-N^1,N^2,N^2-trimethylethane-1,2-diamine], for which the IC50 came out at 199 nM.

Take `CC(C)N1CCN(c2ccc(-c3cc(NCCN4CCCC4)c4nc(-c5ccc(S(C)(=O)=O)cc5)n(C)c4c3)cc2)CC1` [Example 3, 6-(4-(4-isopropylpiperazin-1-yl)phenyl)-1-methyl-2-(4-(methylsulfonyl)phenyl)-N-(2-(pyrrolidin-1-yl)ethyl)-1H-benzo[d]imidazol-4-amine]: the concentration for half-maximal inhibition (IC50) is 87 nM.

`Cc1nc2c(NCCN3CCOCC3)cc(-c3ccc(N4CCN(C(C)C)CC4)cc3)cc2n1C` [Example 4, 6-(4-(4-isopropylpiperazin-1-yl)phenyl)-1,2-dimethyl-N-(2-morpholinoethyl)-1H-benzo[d]imidazol-4-amine]: the concentration for half-maximal inhibition (IC50) was 106 nM. Take `COc1ccc(-c2nc3c(NCCN4CCOCC4)cc(-c4ccc(N5CCN(C(C)C)CC5)cc4)cc3n2C)cc1OC` [Example 5, 2-(3,4-dimethoxyphenyl)-6-(4-(4-isopropylpiperazin-1-yl)phenyl)-1-methyl-N-(2-morpholinoethyl)-1H-benzo[d]imidazol-4-amine]: the IC50 was found to be 94 nM.

In the case of `Cc1cc(C)nc(Nc2cc(-c3ccc(N4CCN(C(C)C)CC4)cc3)cc3c2nc(C)n3C)c1` [Example 6, N-(4,6-dimethylpyridin-2-yl)-6-(4-(4-isopropylpiperazin-1-yl)phenyl)-1,2-dimethyl-1H-benzo[d]imidazol-4-amine], the IC50 amounted to 25 nM.

Turning to `Cc1nc2c(NCCN3CCC(F)(F)CC3)cc(-c3ccc(N4CCN(C(C)C)CC4)cc3)cc2n1C` [Example 7, N-(2-(4,4-difluoropiperidin-1-yl)ethyl)-6-(4-(4-isopropylpiperazin-1-yl)phenyl)-1,2-dimethyl-1H-benzo[d]imidazol-4-amine], the IC50 worked out at 923 nM. With `COc1cccc(CCNc2cc(-c3ccc(N4CCN(C(C)C)CC4)cc3)cc3c2nc(C)n3C)c1OC` [Example 8, N-(2,3-dimethoxyphenethyl)-6-(4-(4-isopropylpiperazin-1-yl)phenyl)-1,2-dimethyl-1H-benzo[d]imidazol-4-amine, TFA], the IC50 amounted to 1560 nM. The value for `Cc1nc2c(NC3CCS(=O)(=O)CC3)cc(-c3ccc(N4CCN(C(C)C)CC4)cc3)cc2n1C` [Example 9, 4-((6-(4-(4-isopropylpiperazin-1-yl)phenyl)-1,2-dimethyl-1H-benzo[d]imidazol-4-yl)amino)tetrahydro-2H-thiopyran 1,1-dioxide] was 1120 nM. The value for `Cc1nc2c(NCCc3ccc(S(C)(=O)=O)cc3)cc(-c3ccc(N4CCN(C(C)C)CC4)cc3)cc2n1C` [Example 10, 6-(4-(4-isopropylpiperazin-1-yl)phenyl)-1,2-dimethyl-N-(4-(methylsulfonyl)phenethyl)-1H-benzo[d]imidazol-4-amine] was 813 nM; that for `Cc1nc2c(NCc3ccc(S(C)(=O)=O)cc3)cc(-c3ccc(N4CCN(C(C)C)CC4)cc3)cc2n1C` [Example 11, 6-(4-(4-isopropylpiperazin-1-yl)phenyl)-1,2-dimethyl-N-(4-(methylsulfonyl)benzyl)-1H-benzo[d]imidazol-4-amine] was 918 nM; that for `Cc1nc2c(NCc3cccc(S(C)(=O)=O)c3)cc(-c3ccc(N4CCN(C(C)C)CC4)cc3)cc2n1C` [Example 12, 6-(4-(4-isopropylpiperazin-1-yl)phenyl)-1,2-dimethyl-N-(3-(methylsulfonyl)benzyl)-1H-benzo[d]imidazol-4-amine] was 971 nM. Consider `Cc1nc2c(NC3CCN(S(C)(=O)=O)CC3)cc(-c3ccc(N4CCN(C(C)C)CC4)cc3)cc2n1C` [Example 13, 6-(4-(4-isopropylpiperazin-1-yl)phenyl)-1,2-dimethyl-N-(1-(methylsulfonyl)piperidin-4-yl)-1H-benzo[d]imidazol-4-amine], for which the IC50 was determined as 1220 nM.

On to `Cc1nc2c(NCc3ccc(CN4CCOCC4)cc3)cc(-c3ccc(N4CCN(C(C)C)CC4)cc3)cc2n1C` [Example 14, 6-(4-(4-isopropylpiperazin-1-yl)phenyl)-1,2-dimethyl-N-(4-(morpholinomethyl)benzyl)-1H-benzo[d]imidazol-4-amine], for which the IC50 was 31 nM. On to `Cc1ccc(Nc2cc(-c3ccc(N4CCN(C(C)C)CC4)cc3)cc3c2nc(C)n3C)cn1` [Example 15, 6-(4-(4-isopropylpiperazin-1-yl)phenyl)-1,2-dimethyl-N-(6-methylpyridin-3-yl)-1H-benzo[d]imidazol-4-amine], for which the IC50 was 526 nM. The same measure for `Cc1nc2c(Nc3ccc(N4CCOCC4)cn3)cc(-c3ccc(N4CCN(C(C)C)CC4)cc3)cc2n1C` [Example 16, 6-(4-(4-isopropylpiperazin-1-yl)phenyl)-1,2-dimethyl-N-(5-morpholinopyridin-2-yl)-1H-benzo[d]imidazol-4-amine]: 207 nM; for `Cc1nc2c(Nc3ccc(N4CCOCC4)nn3)cc(-c3ccc(N4CCN(C(C)C)CC4)cc3)cc2n1C` [Example 17, 6-(4-(4-isopropylpiperazin-1-yl)phenyl)-1,2-dimethyl-N-(6-morpholinopyridazin-3-yl)-1H-benzo[d]imidazol-4-amine, TFA]: 137 nM. The value for `Cc1nc2c(Nc3ccc(N4CCOCC4)nc3)cc(-c3ccc(N4CCN(C(C)C)CC4)cc3)cc2n1C` [Example 18, 6-(4-(4-isopropylpiperazin-1-yl)phenyl)-1,2-dimethyl-N-(6-morpholinopyridin-3-yl)-1H-benzo[d]imidazol-4-amine] was 728 nM; that for `Cc1cc(Nc2cc(-c3ccc(N4CCN(C(C)C)CC4)cc3)cc3c2nc(C)n3C)cnc1C` [Example 19, N-(5,6-dimethylpyridin-3-yl)-6-(4-(4-isopropylpiperazin-1-yl)phenyl)-1,2-dimethyl-1H-benzo[d]imidazol-4-amine] was 452 nM. The value for `Cc1nc2c(Nc3cnccn3)cc(-c3ccc(N4CCN(C(C)C)CC4)cc3)cc2n1C` [Example 20, 6-(4-(4-isopropylpiperazin-1-yl)phenyl)-1,2-dimethyl-N-(pyrazin-2-yl)-1H-benzo[d]imidazol-4-amine] was 1270 nM; that for `Cc1nc2c(Nc3ncccn3)cc(-c3ccc(N4CCN(C(C)C)CC4)cc3)cc2n1C` [Example 21, 6-(4-(4-isopropylpiperazin-1-yl)phenyl)-1,2-dimethyl-N-(pyrimidin-2-yl)-1H-benzo[d]imidazol-4-amine] was 1640 nM.

Consider `Cc1ccc(Nc2cc(-c3ccc(N4CCN(C(C)C)CC4)cc3)cc3c2nc(C)n3C)nc1` [Example 22, 6-(4-(4-isopropylpiperazin-1-yl)phenyl)-1,2-dimethyl-N-(5-methylpyridin-2-yl)-1H-benzo[d]imidazol-4-amine], for which the IC50 worked out at 762 nM.

Consider `COc1ccnc(Nc2cc(-c3ccc(N4CCN(C(C)C)CC4)cc3)cc3c2nc(C)n3C)c1` [Example 23, 6-(4-(4-isopropylpiperazin-1-yl)phenyl)-N-(4-methoxypyridin-2-yl)-1,2-dimethyl-1H-benzo[d]imidazol-4-amine, TFA], for which the IC50 is 370 nM. The value for `Cc1ccc(Nc2cc(-c3ccc(N4CCN(C(C)C)CC4)cc3)cc3c2nc(C)n3C)nn1` [Example 24, 6-(4-(4-isopropylpiperazin-1-yl)phenyl)-1,2-dimethyl-N-(6-methylpyridazin-3-yl)-1H-benzo[d]imidazol-4-amine] was 600 nM; that for `CC(C)c1nc2c(NCCN3CCOCC3)cc(-c3ccc(N4CCN(C(C)C)CC4)cc3)cc2n1C` [Example 25, 2-isopropyl-6-(4-(4-isopropylpiperazin-1-yl)phenyl)-1-methyl-N-(2-morpholinoethyl)-1H-benzo[d]imidazol-4-amine, 2 TFA] was 530 nM; that for `Cc1cc(C)nc(Nc2cc(-c3ccc(N4CCN(C(C)C)CC4)cc3)cc3c2nc(C(C)C)n3C)c1` [Example 26, N-(4,6-dimethylpyridin-2-yl)-2-isopropyl-6-(4-(4-isopropylpiperazin-1-yl)phenyl)-1-methyl-1H-benzo[d]imidazol-4-amine] was 578 nM. In the case of `Cc1cc(C)nc(Nc2cc(-c3ccc(N4CCN(C(C)C)CC4)cc3)cc3c2nc(C2CCN(S(C)(=O)=O)CC2)n3C)c1` [Example 27, N-(4,6-dimethylpyridin-2-yl)-6-(4-(4-isopropylpiperazin-1-yl)phenyl)-1-methyl-2-(1-(methylsulfonyl)piperidin-4-yl)-1H-benzo[d]imidazol-4-amine], the IC50 is 284 nM.

Turning to `CC(C)N1CCN(c2ccc(-c3cc(NCCN4CCN(S(C)(=O)=O)CC4)c4nc(-c5ccc(S(C)(=O)=O)cc5)n(C)c4c3)cc2)CC1` [Example 28, 6-(4-(4-isopropylpiperazin-1-yl)phenyl)-1-methyl-2-(4-(methylsulfonyl)phenyl)-N-(2-(4-(methylsulfonyl)piperazin-1-yl)ethyl)-1H-benzo[d]imidazol-4-amine, 2 TFA], the 50% inhibitory concentration (IC50) came out at 807 nM. Regarding `Cc1cc(C)nc(Nc2cc(-c3ccc(N4CCN(C(C)C)CC4)cc3)cc3c2nc(-c2ccc(S(C)(=O)=O)cc2)n3C)c1` [Example 29, N-(4,6-dimethylpyridin-2-yl)-6-(4-(4-isopropylpiperazin-1-yl)phenyl)-1-methyl-2-(4-(methylsulfonyl)phenyl)-1H-benzo[d]imidazol-4-amine], the IC50 amounted to 340 nM. `CC(C)N1CCN(c2ccc(-c3cc(NCCN4CCOCC4)c4nc(C5CCN(S(C)(=O)=O)CC5)n(C)c4c3)cc2)CC1` [Example 30, 6-(4-(4-isopropylpiperazin-1-yl)phenyl)-1-methyl-2-(1-(methylsulfonyl)piperidin-4-yl)-N-(2-morpholinoethyl)-1H-benzo[d]imidazol-4-amine]: the IC50 is 374 nM.
